Laboratory results as given in PMC4090575, “An In Vivo Microdialysis Study of FLZ Penetration through the Blood-Brain Barrier in Normal and 6-Hydroxydopamine Induced Parkinson's Disease Model Rats” (BioMed Research International, 2014).
Read-outs that look alike come from different tables or passages of the source.

Tests used:
[1] = In vivo microdialysis pharmacokinetics of free FLZ in blood and brain dialysates, with or without zosuquidar·3HCl pretreatment; design: species or system rat; conditions: for AUC, Brain / AUC: n = 3; for AUC / clearance / half-life / unbound brain-to-blood AUC ratio (Kp,uu): rat, 35 mg/kg; for clearance: read-out: CLz, Blood (converted); for unbound brain-to-blood AUC ratio (Kp,uu): brain dialysate / blood dialysate, BBB penetration ratio of free FLZ, read-out: Ri (AUCbrain/AUCblood)
Description: (§1) Rats were divided into four groups (n = 3 animals per group): three normal rats treated with FLZ only (FLZ only-N); three PD rats treated with FLZ only (FLZ only-PD); three normal rats treated with FLZ plus zosuquidar·3HCl (FLZ + ZOSUQ-N); and three PD rats treated with FLZ plus zosuquidar·3HCl (FLZ + ZOSUQ-PD). The system was equilibrated for 1 h after surgery. FLZ was dissolved in a mixture of dimethyl sulfoxide, polyethylene glycol 400, and sodium chloride injection (1 : 4 : 5 (v/v/v)). All rats received FLZ (35 mg/kg) via intravenous injection into the tail vein (with or without pretreatment with zosuquidar·3HCl). Rats in the FLZ + ZOSUQ-N and FLZ + ZOSUQ-PD groups received an i.v. injection of zosuquidar·3HCl (20 mg/kg, dissolved in 20% ethanol-saline) 10 min before FLZ administration. The dose, route of administration, and timing of P-gp inhibition were based on those described in earlier studies. Microdialysis samples were collected from the striatum and the jugular vein at 15 min intervals for 1 h before (blanks) and for 4 h after FLZ administration. The samples were stored at −80°C until they were analysed by ultraperformance liquid chromatography-tandem mass spectrometry (UPLC-MS/MS). At the end of the experiment, the rats were decapitated and the brains were removed for histological verification of probe placement. Data were discarded if the probe placement was outside the target area.
(§2) The microdialysis system comprised a CMA 470 refrigerated fraction collector, a CMA 402 syringe pump, and fluorinated ethylene propylene tubing (CMA, Solna, Sweden). CMA microdialysis probes for the blood (CMA 20, 10 mm in length) and brain (CMA 12, 4 mm in length) were also used. Animals were anaesthetized with urethane (1.4 g/kg, i.p.) before surgery and remained anesthetized throughout the experimental period. The body temperature of each rat was maintained at 37°C until the end of the experiment using a heating pad. The blood microdialysis probe was positioned within the jugular vein toward the right atrium and sutured to the surrounding muscle to prevent it from slipping out. The probe was then perfused with heparinized ringer's solution (1500 U/mL) for 15 min. The microdialysis guide cannula was implanted into the right striatum zone (anterior-posterior: 0.2 mm; lateral: 3.0 mm; dorsal-ventral: 3.5 mm from bregma) and fixed to the skull with stainless steel screws and dental acrylic. The brain microdialysis probe was inserted through the guide cannula.
(§3) In the pilot microdialysis experiment, ringer's solution was perfused through the probe at a flow rate of 1.5 μL/min and the dialysate samples were collected every 15 min from 90 min before until 6 h after dosing with FLZ. In all the other groups, the probes were perfused with ringer's solution containing 4% BSA, with the flow rate set at 1.0 μL/min.
(§4) The relative recovery of FLZ using the microdialysis probe was estimated using a retrodialysis method after sample collection and clearing overnight until there is no drug in the tissue and blood. Perfusates containing FLZ (20 ng/mL for the brain and 200 ng/mL for the blood) were passed separately into the brain and blood through the microdialysis probes at a constant flow rate of 1 μL/min. After a 1-hour stabilization period, the dialysates were collected at 15 min intervals for 1 hour. The concentrations of FLZ in the dialysate (C out) and perfusate (C in) were analysed by UPLC-MS/MS as described in Section 2.7. Recovery (R) was expressed by the following equation: R = 1 − (C out/C in).
(§5) Pharmacokinetic parameters were calculated from the observed data by noncompartmental analysis using the Drug and Statistics for Windows software package (DAS, version 2.0, Chinese Pharmacological Association, China). […]

[2] = system: P-gp; assay: as above; design: species or system rat; conditions: rat, iv, with zosuquidar·3HCl 20 mg/kg i.v. 10 min before FLZ; for AUC / clearance / half-life: 35 mg/kg; for AUC: zosuquidar·3HCl 20 mg/kg i.v. 10 min before FLZ 35 mg/kg i.v., n = 3; for clearance / half-life / unbound brain-to-blood AUC ratio (Kp,uu): zosuquidar·3HCl 20 mg/kg i.v. pretreatment, FLZ 35 mg/kg i.v.; for clearance: read-out: CLz, Blood (converted); for unbound brain-to-blood AUC ratio (Kp,uu): brain dialysate / blood dialysate, read-out: Ri (AUCbrain/AUCblood)
Description: as §1, §2, §3, §4, §5

[3] = Stability of FLZ in UPLC-MS/MS method validation; type: physicochemical; conditions: during preparation, after three freeze/thaw cycles and after storing at −80°C for 45 days
Description: Stock solutions of FLZ and IS were prepared separately in methanol at a target concentration of 1 mg/mL and then diluted with methanol to create working solutions of FLZ at concentrations of 1, 3, 10, 30, 100, 300, 1000, 1500, 2500, 5000, 10000, and 15000 ng/mL and IS at concentrations of 10 ng/mL. All solutions were stored in glass tubes at 4°C for less than 2 months until analysis and were protected from light. FLZ calibration standards (0.1, 0.3, 1, 3, 10, 30, 100, 150, 250, 500, 1000, and 1500 ng/mL) were prepared by spiking the blank perfusate with the appropriate working standard solution of FLZ. Quality control samples were prepared using the working solutions from the same stock solution (0.1, 0.3, 1, 10, 100, and 1000 ng/mL), thereby representing the entire range of concentrations.
Assay validation to meet the acceptance criteria was performed according to the bioanalytical method validation guideline (European Medicines Agency Guideline on Bioanalytical Method Validation, July 21, 2011). The assay was validated in terms of specificity, matrix effect, recovery, calibration curve, precision, accuracy (intra- and interday), lower limit of quantification (LLOQ), and stability (autosampler, freeze-thaw, and long-term).

[4] = design: method as in PMID 22472186; conditions: cited from earlier work
[5] = system: plasma proteins; design: method as in Our previous work; conditions: ref Our previous work; cited from earlier work
[6] = stated with the material supplied; source not given; cited from earlier work
[7] = FLZ + ZOSUQ-N group relative to FLZ only-N group, normal rats
[8] = FLZ + ZOSUQ-PD group relative to FLZ only-PD group, PD rats
[9] = blood (jugular vein) dialysate, FLZ + ZOSUQ-N: normal rats, blood dialysate
[10] = blood (jugular vein) dialysate, FLZ + ZOSUQ-PD: 6-OHDA PD rats, blood dialysate

COc1ccc(OC)c(C(=Cc2ccc(O)c(OC)c2)C(=O)NCCc2ccc(O)cc2)c1 [FLZ, N-[2-(4-hydroxy-phenyl)-ethyl]-2-(2,5-dimethoxy-phenyl)-3-(3-methoxy-4-hydroxy-phenyl)-acrylamide]
reduction in FLZ blood dialysate AUC ([1]; FLZ + ZOSUQ-N group compared with FLZ only-N group, normal rats, not statistically significant): 34%
increase in brain : blood free FLZ AUC ratio [1, 7]: 3 fold
increase in mean brain dialysate FLZ AUC [1, 7]: 123%
AUC, Brain ([1]; FLZ + ZOSUQ-N: normal rats, zosuquidar·3HCl 20 mg/kg i.v. pretreatment, FLZ 35 mg/kg i.v., brain dialysate): 324 ± 46∗∗ μg/L × h
decrease in FLZ blood dialysate AUC [1, 8]: 56%
increase in FLZ brain dialysate AUC [1, 8]: 130%
increase in brain : blood free FLZ AUC ratio [1, 8]: 4 fold
AUC, Brain ([1]; FLZ + ZOSUQ-PD: 6-OHDA PD rats, zosuquidar·3HCl 20 mg/kg i.v. pretreatment, FLZ 35 mg/kg i.v., brain dialysate): 333 ± 103∗ μg/L × h
AUC, Brain ([1]; FLZ only-N: normal rats, FLZ 35 mg/kg i.v., brain (striatum) dialysate): 145 ± 25 µg·h/L
decrease in brain : blood free FLZ AUC ratio ([1]; FLZ only-PD group relative to FLZ only-N group, not statistically significant): 20%
AUC, Brain ([1]; FLZ only-PD: 6-OHDA PD rats, FLZ 35 mg/kg i.v., brain (striatum) dialysate): 145 ± 18 µg·h/L
AUC ([1]; blood (jugular vein) dialysate, iv, FLZ only-N: normal rats, FLZ 35 mg/kg i.v., blood dialysate, free FLZ): 2350 ± 39 ng·h/mL
clearance ([1]; blood (jugular vein) dialysate, iv, FLZ only-N: normal rats, FLZ 35 mg/kg i.v., blood dialysate): 248 mL/min/kg
half-life ([1]; blood (jugular vein) dialysate, iv, FLZ only-N: normal rats, FLZ 35 mg/kg i.v., blood dialysate, read-out: t 1/2, Blood (converted)): 1.21 ± 0.22 h
AUC ([1]; blood (jugular vein) dialysate, iv, FLZ only-PD: 6-OHDA PD rats, FLZ 35 mg/kg i.v., blood dialysate, free FLZ): 3070 ± 621 ng·h/mL
clearance ([1]; blood (jugular vein) dialysate, iv, FLZ only-PD: 6-OHDA PD rats, FLZ 35 mg/kg i.v., blood dialysate): 195 mL/min/kg
half-life ([1]; blood (jugular vein) dialysate, iv, FLZ only-PD: 6-OHDA PD rats, FLZ 35 mg/kg i.v., blood dialysate, read-out: t 1/2, Blood (converted)): 1.34 ± 0.03 h
half-life ([1]; blood dialysate and brain dialysate, intravenous, present study, both in the blood and brain, free FLZ, read-out: t 1/2 of FLZ (converted)): ~1.1 h
half-life ([1]; brain (striatum) dialysate, iv, FLZ only-N: normal rats, FLZ 35 mg/kg i.v., brain dialysate, read-out: t 1/2, Brain (converted)): 1.15 ± 0.57 h
half-life ([1]; brain (striatum) dialysate, iv, FLZ only-PD: 6-OHDA PD rats, FLZ 35 mg/kg i.v., brain dialysate, read-out: t 1/2, Brain (converted)): 1.31 ± 0.29 h
unbound brain-to-blood AUC ratio (Kp,uu) ([1]; iv, FLZ only-N: normal rats, FLZ 35 mg/kg i.v.): 0.0617 ± 0.0105
unbound brain-to-blood AUC ratio (Kp,uu) ([1]; iv, FLZ only-PD: 6-OHDA PD rats, FLZ 35 mg/kg i.v.): 0.0492 ± 0.0158
AUC [2, 9]: 1560 ± 881 ng·h/mL
clearance [2, 9]: 473 mL/min/kg
half-life ([2]; blood (jugular vein) dialysate, FLZ + ZOSUQ-N: normal rats, blood dialysate, read-out: t 1/2, Blood (converted)): 1.11 ± 0.13 h
AUC [2, 10]: 1330 ± 259 ng·h/mL
clearance [2, 10]: 447 mL/min/kg
half-life ([2]; blood (jugular vein) dialysate, FLZ + ZOSUQ-PD: 6-OHDA PD rats, blood dialysate, read-out: t 1/2, Blood (converted)): 1.43 ± 0.25 h
half-life ([2]; brain (striatum) dialysate, FLZ + ZOSUQ-N: normal rats, brain dialysate, read-out: t 1/2, Brain (converted)): 1.04 ± 0.43 h
half-life ([2]; brain (striatum) dialysate, FLZ + ZOSUQ-PD: 6-OHDA PD rats, brain dialysate, read-out: t 1/2, Brain (converted)): 1.14 ± 0.27 h
unbound brain-to-blood AUC ratio (Kp,uu) ([2]; FLZ + ZOSUQ-N: normal rats): 0.248 ± 0.114
unbound brain-to-blood AUC ratio (Kp,uu) ([2]; FLZ + ZOSUQ-PD: 6-OHDA PD rats): 0.246 ± 0.027
stability of FLZ [3]: remained stable
increase in FLZ brain-to-plasma ratio with zosuquidar·3HCl pretreatment versus control ([4]; 0.25 min postdose, brain homogenate-to-plasma concentration ratio): about 3.1 fold
t 1/2 of FLZ reported previously [4]: about 0.5 h
binding rate of FLZ to plasma proteins [5]: about 90%
lipophilicity [6]: lipophilic
pKa [6]: 13.75 ± 0.46
water solubility [6]: poorly water-soluble
